Measured values reported in patent US20070270336A1, “Method for accelerating cutaneous barrier recovery” (Shiseido Company, Ltd., priority 2006, published 2007).
Entries after “also recorded” stand apart in the source; their conditions may differ.

What was measured:
[1] = system: hairless mice flank skin; assay: Permeability barrier recovery (TEWL) after tape stripping; assay type: in vivo, mouse; details: for permeability barrier recovery after tape stripping (percent recovery of TEWL): single topical application after tape stripping, each reagent 1 mM (FIG. 1 legend), 1, 3 and 6 hours, vs water control
Procedure: All experiments were performed on 7-10-week old male hairless mice (HR-1, Hoshino, Japan). All procedures for measuring of skin barrier function, disrupting the barrier and applying the sample were carried out under anesthesia. All experiments were approved by the Animal Research Committee of the Shiseido Research Center in accordance with the National Research Council Guide. 1-EBIO, diazoxide, gilbenclamide, minoxidil, dequalinium were purchased from Tocris (TOCRIS, Bristol, UK). Valinomycin was purchased from Wako (Wako Osaka, Japan).
(§1) Permeability barrier function was evaluated by measurement of transepidermal water loss (TEWL) with an electric water analyzer, as described previously (Denda, M., Sato J., Masuda Y., Kuramoto M., Elias P. M., Feingold K. R. (1998). J Invest Dermatol 111(5): 858-63). For barrier recovery experiments, both sides of flank skin were treated with repeated tape stripping until the TEWL reached 7-10 mg per cm^2 per h. […] The areas were covered with plastic membranes for 15 min (both treated and control sites) and then the membranes were removed. Previous studies have shown that occlusion for a longer period of time delays barrier repair. […] Two points on one side of a flank were measured and 4-8 mice were used to evaluate the effects of each treatment. We always disrupted the barrier between 7:00AM to 8:00AM to avoid variations in repair rate due to the influence of circadian rhythm. TEWL was then measured over the same sites at 1, 3 and 6 hours after barrier disruption. The barrier recovery results are expressed as percent of recovery, because of variations from day to day in the extent of barrier disruption. In each animal, the percentage of recovery was calculated by the following formula: (TEWL immediately after barrier disruption−TEWL at indicated time point)/(TEWL immediately after barrier disruption−baseline TEWL)×100%). All experiments were performed on 7 to 10-week-old male hairless mice (HR-1, Hoshino, Japan). All procedures including measurement of skin barrier function, disruption of the barrier, and application of test samples were carried out under anesthesia.

[2] = system: differentiated cultured human keratinocytes (CHK); assay: Evaluation of intracellular potassium levels (PBFI-AM fluorescence); assay type: cell-based; details: FIG. 3
Procedure: Evaluation of intracellular potassium levels All in vitro cell culture measurements were carried out using second passage human neonatal keratinocytes. We incubated cells in a low calcium medium (0.1 mM calcium, HuMedia-KG2, KURABO, Osaka, Japan) for at least 5 days and used the cells within 10 days. These keratinocytes were incubated until 100% of confluency, incubated 3 more days, and then incubated in a high calcium medium (1.8 mM calcium) for 24 hours to induce differentiation of the keratinocytes. We then added PBF1-AM (Molecular Probes, Eugene, Oreg.), final concentration 10 μM, and then incubated the cells for 4 hours at 37 C. The cultured keratinocytes were then washed in the medium described above. The cover slip was mounted on a fluorescence microscope (IX70, TS Olympus, Tokyo, Japan) equipped with a 75 W xenon-lamp and band-path filters of 340 nm. Measurements were carried out at the room temperature. Imaging data, recorded by a high-sensitive silicon intensifier target camera (C4742, Hamamatsu Photonics, Hamamatsu, Japan) were recorded by a fluorescence analyzing system (AQUACOSMOS/RATIO1, Hamamatsu Photonics, Hamamatsu, Japan).

[3] = system: mouse epidermis (stratum granulosum lamellar bodies); assay: Electron-microscopic study of lamellar body secretion after acetone treatment; assay type: in vivo; details: one hour after acetone treatment; electron microscopy; FIG. 4
Text: The full thickness of skin samples for electron microscopy was minced into pieces (<0.5 mm^3) and fixed in modified Karnovsky's fixative overnight. They were then post-fixed in 2% aqueous osmium tetroxide or 0.2% ruthenium tetroxide as described previously (Denda et al. 1998, op. cit.). After fixation, all samples were dehydrated in graded ethanol solutions, and embedded in an Epon-epoxy mixture. Thin sections were stained with lead citrate and uranyl acetate and viewed by electron microscopy.

[4] = system: hairless mice epidermis; assay: Epidermal hyperplasia induced by barrier disruption under low humidity; assay type: in vivo, mouse
Procedure: Animals were kept separately in 7.2 liter cages in which the relative humidity was maintained at less than 10% with dry air as described previously (Denda et al. 1998a). The temperature was the same in all cases (22-25° C.), and fresh air was circulated 100 times per hour. Animals were kept out of the direct stream of air. During the experiments, the animal's behavior was not restricted. The level of NH3 was always below 1 ppm. Animals were first kept in a dry condition for 48 hours and then the skin on both flank sides was treated with acetone-soaked cotton balls, as described previously (Denda et al. 1998a). The procedure was terminated when TEWL reached 2.5-3.5 mg per cm^2 per h. Immediately after the barrier disruption, 100 ul of Diazoxide aqueous solution (100 uM) was applied on one side of the treated area. Water was applied on the other side. Then the animals were again kept in the dry condition for 48 hours. After the experiments, animals were euthanized with diethylether inhalation and skin samples were taken from the treated area. […] On each section, five areas were selected at random; the thickness of the epidermis was measured with an optical micrometer, and the mean value was calculated. […] On each section, five areas were selected at random from one section; the number of immunostained cells per 1 mm of epidermis was counted and the mean value was calculated. […]

[5] = system: hairless mouse flanks; assay: Permeability barrier recovery (TEWL) after acetone treatment; assay type: in vivo; details: topical potassium ionophore; FIG. 2B; n=4
Procedure: as §1, with “[…] Immediately after” for “For”, “disruption 100 μl” for “recovery experiments, both sides”, “an aqueous solution containing 1 μM of reagent or water alone (control) was applied to the” for “flank skin were”, “area.” for “with repeated tape stripping until the TEWL reached 7-10 mg per cm^2 per h.”, “All experiments were performed on 7 to 10-week-old male hairless mice (HR-1, Hoshino, Japan). All procedures including measurement of skin barrier function, disruption of the barrier, and application of test samples were carried out under anesthesia.” left out

CCn1c(=O)[nH]c2ccccc21 [1-EBIO, 1-Ethyl-2-benzoimidazollnone]
permeability barrier recovery after tape stripping (percent recovery of TEWL) [1]: significantly accelerated barrier repair; also recorded: accelerated barrier recovery
change in intracellular potassium (K+) concentration ([2]; 10 μM final concentration): decreased intracellular K^+ concentrations; also recorded: decreased intracellular potassium concentrations

Cc1cc(N)c2ccccc2[n+]1CCCCCCCCCC[n+]1c(C)cc(N)c2ccccc21 [dequalinium, 1,1-(1,10-Decanedyl)bis(4-amino-2-methylquinolinium)dichloride]
permeability barrier recovery after tape stripping (percent recovery of TEWL) [1]: significantly delayed barrier recovery

CC1=Nc2ccc(Cl)cc2S(=O)(=O)N1 [diazoxide, 7-chloro-3-methyl-2H-1,2,4-benzothiadiazine 1,1-dioxide]
permeability barrier recovery after tape stripping (percent recovery of TEWL) [1]: significantly accelerated barrier repair; also recorded: accelerated barrier recovery
change in intracellular potassium (K+) concentration ([2]; 10 μM final concentration): decreased intracellular K^+ concentrations; also recorded: decreased intracellular potassium concentrations
lamellar body (LB) secretion at SG-SC interface [3]: much more secreted material is evident at SG-SC interface; also recorded: accelerated the secretion of LB
epidermal hyperplasia induced by acetone treatment under low humidity ([4]; topical 100 uM aqueous solution, 48 hours dry condition, vs water, FIG. 5): prevented the epidermal hyperplasia
epidermal proliferation (BrdU positive cells), quantified ([4]; topical 100 uM, FIG. 6, 6 control mice and 5 treated, ANOVA probability 0.0372): Significant reductions of epidermal proliferation

COc1ccc(Cl)cc1C(=O)NCCc1ccc(S(=O)(=O)NC(=O)NC2CCCCC2)cc1 [gilbenclamide, 5-chloro-N{2-[4[[[cycohexylamino]carbonyl]amino]sulfonyl]phenyl}-2-metyhoxybenzamide]
permeability barrier recovery after tape stripping (percent recovery of TEWL) [1]: significantly delayed barrier recovery

CC(C)[C@@H]1NC(=O)[C@H](C)OC(=O)[C@@H](C(C)C)NC(=O)[C@@H](C(C)C)OC(=O)[C@H](C(C)C)NC(=O)[C@H](C)OC(=O)[C@@H](C(C)C)NC(=O)[C@@H](C(C)C)OC(=O)[C@H](C(C)C)NC(=O)[C@H](C)OC(=O)[C@@H](C(C)C)NC(=O)[C@@H](C(C)C)OC1=O [valinomycin]
permeability barrier recovery after tape stripping ([1]; topical potassium ionophore, FIG. 2A, n=4): accelerated barrier recovery
permeability barrier recovery after acetone treatment [5]: accelerated barrier recovery
change in intracellular potassium (K+) concentration ([2]; 1 μM final concentration): decreased intracellular K^+ concentrations; also recorded: decreased intracellular potassium concentrations
lamellar body (LB) secretion at SG-SC interface [3]: much more secreted material is evident at SG-SC interface; also recorded: accelerated the secretion of LB
